This experiment deals with T1, Dimer of Gag-Pol polyprotein [489-587] (Human immunodeficiency virus 1, UniProt P12497).
T1 construct: 489-587
The experiment can be described thus: Protease Inhibition Assay. As to conditions: pH 5.5; 30 °C. As to the method:
Sensitivity of HIV-1 protease activity to protease inhibitors was determined by a peptide substrate cleavage assay. Protease products were analyzed on a reverse-phase high-pressure liquid chromatograph.

Compound `CCC(C)C(NC(=O)[C@H](C/C=C/c1ccccc1)C[C@H](O)[C@H](Cc1ccccc1)NC(=O)OC(C)(C)C)C(=O)NCc1nc2ccccc2[nH]1` (stereo partly drawn) [tert-butyl N-[(2S,3S,5R)-5-({1-[(1H-1,3-benzodiazol-2-ylmethyl)carbamoyl]-2-methylbutyl}carbamoyl)-3-hydroxy-1-phenyl-5-[(2E)-3-phenylprop-2-en-1-yl]pentan-2-yl]carbamate] showed an IC50 of 0.03 nM.

The compound `CCC(C)C(NC(=O)[C@H](Cc1ccccc1)C[C@H](O)[C@H](Cc1ccccc1)NC(=O)OC(C)(C)C)C(=O)NCc1nc2ccccc2[nH]1` (stereo partly drawn) [tert-butyl N-[(2S,3S,5R)-5-({1-[(1H-1,3-benzodiazol-2-ylmethyl)carbamoyl]-2-methylbutyl}carbamoyl)-5-benzyl-3-hydroxy-1-phenylpentan-2-yl]carbamate] had an IC50 of 0.07 nM.

Values taken from BindingDB's records for doi:10.1021/jm00107a050 (Merck Research Laboratories, 1991).
